According to ChEMBL document CHEMBL4020732, “Synthesis, structural characterization and biological activity of novel Knoevenagel condensates on DLD-1 human colon carcinoma” (Bioorg Med Chem Lett, 2017):
The source made the active and inactive calls. The calls are words filed in the database; no cut-off is given here.

Tests used:
[1] = Antioxidant activity assessed as ABTS radical scavenging activity at 100 uM after 5 mins by spectrophotometric method; format: functional
[2] = target: Superoxide dismutase 1/2 (Homo sapiens) (UniProt P00441+P04179); experiment: Inhibition of SOD1/SOD2 in human DLD1 cells at 100 uM using xanthine as substrate pretreated for 24 hrs followed by substrate addition measured after 5 mins by NBT dye based spectrophotometric method; format: cell-based
DLD-1 [3] = experiment: Antiproliferative activity against human DLD1 cells at 100 uM after 4 to 48 hrs by Alamar blue assay; format: functional, cell-based
[4] = Antioxidant activity assessed as ABTS radical scavenging activity after 5 mins by spectrophotometric method; format: functional; design: unit not given here
[5] = Antioxidant activity of the compound assessed as DPPH radical scavenging activity at 1 mM after 5 mins by spectrophotometric method; format: functional
DLD-1 [6] = experiment: Antioxidant activity in human DLD1 cells assessed as ratio of reduced glutathione to oxidized glutathione by ortho-phthalaldehyde probe based fluorescence spectrometric method (reference value: 3.19 +/- 0.2); format: functional
[7] = target: T1, Superoxide dismutase [Mn], mitochondrial (Homo sapiens) (UniProt P04179); experiment: Inhibition of mitochondrial SOD2 in human DLD1 cells at 100 uM using xanthine as substrate pretreated for 24 hrs followed by substrate addition after 5 mins by NBT dye based spectrophotometric method; format: cell-based
T1 sequence (whole entry): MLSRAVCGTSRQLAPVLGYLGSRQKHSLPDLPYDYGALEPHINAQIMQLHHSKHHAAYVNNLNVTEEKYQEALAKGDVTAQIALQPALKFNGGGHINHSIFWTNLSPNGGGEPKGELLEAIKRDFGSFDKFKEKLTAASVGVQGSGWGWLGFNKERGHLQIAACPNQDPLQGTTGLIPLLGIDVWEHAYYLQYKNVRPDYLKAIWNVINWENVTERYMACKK

DLD-1 [8] = experiment: Cytotoxicity against human DLD1 cells by MTT assay; format: functional, cell-based
DLD-1 [9] = experiment: Antioxidant activity in human DLD1 cells assessed as glutathione reactivity by measuring GSH level per mg protein by ortho-phthalaldehyde probe based fluorescence spectrometric method (reference value: 2.19 +/- 0.18 nmol); format: functional
DLD-1 [10] = experiment: Antioxidant activity in human DLD1 cells assessed as glutathione reactivity by measuring GSSG level per mg protein by ortho-phthalaldehyde probe based fluorescence spectrometric method (reference value: 0.69 nmol); format: functional
[11] = Antioxidant activity of the compound assessed as DPPH radical scavenging activity after 5 mins by spectrophotometric method; format: functional; design: unit not given here
[12] = target: T2, Extracellular superoxide dismutase [Cu-Zn] (Homo sapiens) (UniProt P08294); experiment: Inhibition of SOD3 in human DLD1 cells at 100 uM using xanthine as substrate pretreated for 24 hrs followed by substrate addition after 5 mins by NBT dye based spectrophotometric method; format: cell-based
T2 sequence (whole entry): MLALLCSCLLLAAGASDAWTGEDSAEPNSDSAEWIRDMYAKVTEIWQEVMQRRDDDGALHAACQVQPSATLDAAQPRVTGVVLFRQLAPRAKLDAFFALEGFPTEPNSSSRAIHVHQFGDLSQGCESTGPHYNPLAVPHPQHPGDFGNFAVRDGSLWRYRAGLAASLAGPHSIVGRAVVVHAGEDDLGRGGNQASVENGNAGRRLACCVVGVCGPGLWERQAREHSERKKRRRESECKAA

[13] = Glutathione reactivity assessed as rate constant for total GSH loss by UV-vis spectrophotometric method
DLD-1 [14] = experiment: Down regulation of MRP1 expression in human DLD1 cells at 100 uM after 24 hrs by fluorescence assay; format: functional, cell-based

Sequence of Superoxide dismutase 1/2 (Homo sapiens) (P00441 whole entry, looked up, one chain of several): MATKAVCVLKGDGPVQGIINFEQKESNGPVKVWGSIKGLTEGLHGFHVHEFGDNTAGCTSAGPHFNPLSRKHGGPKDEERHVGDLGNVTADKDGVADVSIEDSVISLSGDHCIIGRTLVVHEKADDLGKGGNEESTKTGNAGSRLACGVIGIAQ

CCOc1cc(/C=C/C(=O)C(=Cc2ccc(OC)c(OC)c2)C(=O)/C=C/c2ccc(O)c(OCC)c2)ccc1O
inhibition [1]: 80.6% | inhibition [2]: Active | Activity (DLD-1 [3]): Active | 1/IC50 [4]: 0.088 | IC50 [4]: 11.3 µM | inhibition [5]: 73.5% | Ratio (DLD-1 [6]): 6.59 | inhibition [7]: Active | IC50 (DLD-1 [8]): 42 µM | Activity (DLD-1 [9]): 3.24 nmol | Activity (DLD-1 [10]): 0.49 nmol | 1/IC50 [11]: 0.019 | IC50 [11]: 53.2 µM | inhibition [12]: inactive | Activity [13]: Active

CCOc1cc(/C=C/C(=O)C(=Cc2ccc(O)c(O)c2)C(=O)/C=C/c2ccc(O)c(OCC)c2)ccc1O
inhibition [1]: 98.1% | inhibition [2]: Active | Activity (DLD-1 [3]): Active | 1/IC50 [4]: 0.275 | IC50 [4]: 3.63 µM | inhibition [5]: 81.2% | Ratio (DLD-1 [6]): 3.78 | IC50 (DLD-1 [8]): 5.1 µM | Activity (DLD-1 [9]): 4.41 nmol | Activity (DLD-1 [10]): 1.16 nmol | 1/IC50 [11]: 0.04 | IC50 [11]: 25.2 µM | inhibition [12]: Active | Activity [13]: Active

CCOc1cc(/C=C/C(=O)C(=Cc2ccc(OCC)c(OCC)c2)C(=O)/C=C/c2ccc(O)c(OCC)c2)ccc1O
inhibition [1]: 71.4% | inhibition [2]: inactive | Activity (DLD-1 [3]): Active | 1/IC50 [4]: 0.049 | IC50 [4]: 20.2 µM | inhibition [5]: 69% | Ratio (DLD-1 [6]): 0.65 | IC50 (DLD-1 [8]): 3.45 µM | Activity (DLD-1 [9]): 2.12 nmol | Activity (DLD-1 [10]): 3.24 nmol | 1/IC50 [11]: 0.016 | IC50 [11]: 61.6 µM | inhibition [12]: inactive | Activity [13]: Active

CCOc1cc(/C=C/C(=O)C(=Cc2ccc(O)c(OC)c2)C(=O)/C=C/c2ccc(O)c(OCC)c2)ccc1O
inhibition [1]: 96.6% | Activity (DLD-1 [3]): Active | 1/IC50 [4]: 0.187 | IC50 [4]: 5.36 µM | inhibition [5]: 63% | Ratio (DLD-1 [6]): 2.27 | Activity (DLD-1 [14]): Active | IC50 (DLD-1 [8]): 9.63 µM | Activity (DLD-1 [9]): 9.75 nmol | Activity (DLD-1 [10]): 4.3 nmol | 1/IC50 [11]: 0.017 | IC50 [11]: 60.5 µM | inhibition [12]: inactive | Activity [13]: Active

CCOc1cc(C=C(C(=O)/C=C/c2ccc(O)c(OC)c2)C(=O)/C=C/c2ccc(O)c(OC)c2)ccc1O
inhibition [1]: 94.3% | inhibition [2]: Active | Activity (DLD-1 [3]): Active | 1/IC50 [4]: 0.251 | IC50 [4]: 3.98 µM | inhibition [5]: 42.3% | Ratio (DLD-1 [6]): 5 | Activity (DLD-1 [14]): Active | IC50 (DLD-1 [8]): 4.26 µM | Activity (DLD-1 [9]): 5.12 nmol | Activity (DLD-1 [10]): 1.02 nmol | 1/IC50 [11]: 0.01 | IC50 [11]: 123 µM | inhibition [12]: inactive | Activity [13]: Active

C=CC(=O)OCCCC
K [13]: 0.142 M⁻¹ s⁻¹

COc1cc(/C=C/C(=O)C(=Cc2ccc(OC)c(OC)c2)C(=O)/C=C/c2ccc(O)c(OC)c2)ccc1O
inhibition [1]: 83.6% | inhibition [2]: Active | Activity (DLD-1 [3]): Active | 1/IC50 [4]: 0.148 | IC50 [4]: 6.76 µM | inhibition [5]: 64.8% | Ratio (DLD-1 [6]): 0.93 | inhibition [7]: Active | Activity (DLD-1 [14]): Active | IC50 (DLD-1 [8]): 3.07 µM | Activity (DLD-1 [9]): 3.93 nmol | Activity (DLD-1 [10]): 4.21 nmol | 1/IC50 [11]: 0.014 | IC50 [11]: 71 µM | inhibition [12]: inactive | Activity [13]: Active

COc1cc(C=C(C(=O)/C=C/c2ccc(O)c(OC)c2)C(=O)/C=C/c2ccc(O)c(OC)c2)ccc1O
inhibition [1]: 97.9% | inhibition [2]: Active | Activity (DLD-1 [3]): Active | 1/IC50 [4]: 0.305 | IC50 [4]: 3.28 µM | inhibition [5]: 59.1% | Ratio (DLD-1 [6]): 1.63 | inhibition [7]: Active | Activity (DLD-1 [14]): Active | IC50 (DLD-1 [8]): 5.06 µM | Activity (DLD-1 [9]): 4.56 nmol | Activity (DLD-1 [10]): 2.8 nmol | 1/IC50 [11]: 0.014 | IC50 [11]: 72.4 µM | Activity [13]: Active

CCOc1cc(/C=C/C(=O)C(=Cc2ccc(O)cc2)C(=O)/C=C/c2ccc(O)c(OCC)c2)ccc1O
inhibition [1]: 87.7% | inhibition [2]: inactive | Activity (DLD-1 [3]): Active | 1/IC50 [4]: 0.068 | IC50 [4]: 14.8 µM | inhibition [5]: 74.4% | Ratio (DLD-1 [6]): 1.15 | inhibition [7]: inactive | Activity (DLD-1 [14]): Active | IC50 (DLD-1 [8]): 20.3 µM | Activity (DLD-1 [9]): 3.59 nmol | Activity (DLD-1 [10]): 3.13 nmol | 1/IC50 [11]: 0.021 | IC50 [11]: 48 µM | inhibition [12]: inactive | Activity [13]: Active

COc1cc(/C=C/C(=O)C(=Cc2ccc(O)c(O)c2)C(=O)/C=C/c2ccc(O)c(OC)c2)ccc1O
inhibition [1]: 98.2% | inhibition [2]: Active | Activity (DLD-1 [3]): Active | 1/IC50 [4]: 0.455 | IC50 [4]: 2.2 µM | inhibition [5]: 92.5% | Ratio (DLD-1 [6]): 5.17 | IC50 (DLD-1 [8]): 17.6 µM | Activity (DLD-1 [9]): 2.6 nmol | Activity (DLD-1 [10]): 0.5 nmol | 1/IC50 [11]: 0.097 | IC50 [11]: 10.3 µM | Activity [13]: inactive
